# Data from patent US11986532B2 (Arvinas Operations, Inc., priority 2021, dated 2024).
# Molecular target: T1, BCL6 (Homo sapiens, UniProt P41182)
# T1 construct: endogenous in cells; host or cells: T47D breast cancer epithelial cells
# Assay: Immunofluorescence protocol for high content imaging of BCL6 (degradation) in T47D cells, 3 days compound treatment
# Format: cell-based
# Conditions: for Dmax: T47D, read-out: Mean Dmax (%)** category; for DC50: read-out: Mean DC50 (nM)* category
# Outline: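 T47D, RPMI1640/10% FBS; cpd 11-pt 3-fold, top 0.1 or 1 μM final; 3 d, 37° C. Fix 4% PFA, perm 0.1% Triton, block 3% BSA; anti-BCL6 1:300 o/n 4° C; Alexa-488 2°, CellMask-647, Hoechst. Imaged 10×, 4 fields/well.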
SMILES,Dmax [%],DC50 [nM]
"CNC(=O)COc1cc2cc(Nc3nc(N4CCC(O[C@H]5C[C@H](N6CCN(c7ccc8c(c7)C(=O)N(C7CCC(=O)NC7=O)C8=O)C[C@@H]6C)C5)CC4)ncc3Cl)ccc2n(C(C)C)c1=O (stereo partly drawn) [Compound 261, 2-({6-[(5-chloro-2-{4-[(1r,3r)-3-[(2S)-4-[2-(2,6-dioxopiperidin-3-yl)-1,3-dioxo-2,3-dihydro-1H-isoindol-5-yl]-2-methylpiperazin-1-yl]cyclobutoxy]piperidin-1-yl}pyrimidin-4-yl)amino]-2-oxo-1-(propan-2-yl)-1,2-dihydroquinolin-3-yl}oxy)-N-methylacetamide]",50 to 70,10 to 50
"CNC(=O)COc1cc2c(F)c(Nc3cc(N4CCC(F)(CN5CCC6(CC5)CN(c5ccc7c(c5)CN(C5CCC(=O)NC5=O)C7=O)C6)CC4)ncc3Cl)ccc2n(C(C)C)c1=O (stereo not drawn) [Compound 262, 2-{[6-({5-chloro-2-[4-({2-[2-(2,6-dioxopiperidin-3-yl)-1-oxo-2,3-dihydro-1H-isoindol-5-yl]-2,7-diazaspiro[3.5]nonan-7-yl}methyl)-4-fluoropiperidin-1-yl]pyridin-4-yl}amino)-5-fluoro-2-oxo-1-(propan-2-yl)-1,2-dihydroquinolin-3-yl]oxy}-N-methylacetamide]",50 to 70,< 10
"CNC(=O)COc1cc2cc(Nc3nc(N4CCC(O[C@H]5C[C@H](N6CCN(c7ccc8c(c7)C(=O)N(C7CCC(=O)NC7=O)C8=O)C[C@H]6C)C5)CC4)ncc3Cl)ccc2n(C(C)C)c1=O (stereo partly drawn) [Compound 263, 2-({6-[(5-chloro-2-{4-[(1r,3r)-3-[(2R)-4-[2-(2,6-dioxopiperidin-3-yl)-1,3-dioxo-2,3-dihydro-1H-isoindol-5-yl]-2-methylpiperazin-1-yl]cyclobutoxy]piperidin-1-yl}pyrimidin-4-yl)amino]-2-oxo-1-(propan-2-yl)-1,2-dihydroquinolin-3-yl}oxy)-N-methylacetamide]",50 to 70,< 10
"CC(C)n1c(=O)c(OCC(=O)O)cc2cc(Nc3nc(N4CCC(O[C@H]5C[C@H](N6CCC(c7ccc8c(c7F)CN(C7CCC(=O)NC7=O)C8=O)CC6)C5)CC4)ncc3Cl)ccc21 (stereo partly drawn) [Compound 264, 2-({6-[(5-chloro-2-{4-[(1r,3r)-3-{4-[2-(2,6-dioxopiperidin-3-yl)-4-fluoro-1-oxo-2,3-dihydro-1H-isoindol-5-yl]piperidin-1-yl}cyclobutoxy]piperidin-1-yl}pyrimidin-4-yl)amino]-2-oxo-1-(propan-2-yl)-1,2-dihydroquinolin-3-yl}oxy)acetic acid]",≥ 70,< 10
"CC(C)n1c(=O)c(OCC(=O)N(C)O)cc2cc(Nc3nc(N4CCC(O[C@H]5C[C@H](N6CCC(c7ccc8c(c7F)CN(C7CCC(=O)NC7=O)C8=O)CC6)C5)CC4)ncc3Cl)ccc21 (stereo partly drawn) [Compound 265, 2-({6-[(5-chloro-2-{4-[(1r,3r)-3-{4-[2-(2,6-dioxopiperidin-3-yl)-4-fluoro-1-oxo-2,3-dihydro-1H-isoindol-5-yl]piperidin-1-yl}cyclobutoxy]piperidin-1-yl}pyrimidin-4-yl)amino]-2-oxo-1-(propan-2-yl)-1,2-dihydroquinolin-3-yl}oxy)-N-hydroxy-N-methylacetamide]",≥ 70,< 10
"CNC(=O)COc1cc2cc(Nc3nc(N4CCC(O[C@H]5C[C@H](N6CCN(c7c(OC)cc8c(c7C)C(=O)N(C7CCC(=O)NC7=O)C8=O)CC6)C5)CC4)ncc3Cl)ccc2n(C(C)C)c1=O (stereo partly drawn) [Compound 266, 2-({6-[(5-chloro-2-{4-[(1r,3r)-3-{4-[2-(2,6-dioxopiperidin-3-yl)-6-methoxy-4-methyl-1,3-dioxo-2,3-dihydro-1H-isoindol-5-yl]piperazin-1-yl}cyclobutoxy]piperidin-1-yl}pyrimidin-4-yl)amino]-2-oxo-1-(propan-2-yl)-1,2-dihydroquinolin-3-yl}oxy)-N-methylacetamide]",≥ 70,< 10
